The record followed here is US10212936B2, “Molecules having pesticidal utility, and intermediates, compositions, and processes, related thereto” (priority 2014, dated 2019).

Holding throughout (format): in vivo
Data set [1] relates to Beet Armyworm (Spodoptera exigua, LAPHEG). Description: Bioassay on Beet Armyworm (BAW), 128-well diet tray assay. The note with it: 168 h, 50 μg/cm^2 on artificial diet, second instar larvae, five to seven days, 25° C., read-out: BAW % Control (or Mortality) rating. The procedure: (§1) Example A: Bioassays on Beet Armyworm (Spodoptera exigua, LAPHEG) (“BAW”), Corn Earworm (Helicoverpa zea, HELIZE) (“CEW”), and Cabbage Looper (Trichoplusia ni, TRIPNI) (“CL”)
(§2) Certain molecules disclosed in this document were tested against BAW, CEW, and CL using procedures described in the following examples. In the reporting of the results, the “BAW, CEW, & CL Rating Table” was used (See Table Section).
Bioassays on BAW were conducted using a 128-well diet tray assay. one to five second instar BAW larvae were placed in each well (3 mL) of the diet tray that had been previously filled with 1 mL of artificial diet to which 50 μg/cm^2 of the test molecule (dissolved in 50 μL of 90:10 acetone-water mixture) had been applied (to each of eight wells) and then allowed to dry. Trays were covered with a clear self-adhesive cover and held at 25° C., 14:10 light-dark for five to seven days. Percent mortality was recorded for the larvae in each well; activity in the eight wells was then averaged. The results are indicated in the table entitled “Table ABC: Biological Results” (See Table Section).

The subject of data set [2] is Cabbage Looper (Trichoplusia ni, TRIPNI). The data set is described as follows: Bioassay on Cabbage Looper (CL), 128-well diet tray assay. The note with it: 168 h, 50 μg/cm^2 on artificial diet, second instar larvae, five to seven days, 25° C., read-out: CL % Control (or Mortality) rating. The procedure:
as §1, §2
Bioassays on CL were conducted using a 128-well diet tray assay. one to five second instar CL larvae were placed in each well (3 mL) of the diet tray that had been previously filled with 1 mL of artificial diet to which 50 μg/cm^2 of the test molecule (dissolved in 50 μL of 90:10 acetone-water mixture) had been applied (to each of eight wells) and then allowed to dry. Trays were covered with a clear self-adhesive cover and held at 25° C., 14:10 light-dark for five to seven days. Percent mortality was recorded for the larvae in each well; activity in the eight wells was then averaged. The results are indicated in the table entitled “Table ABC: Biological Results” (See Table Section).

Data set [3] deals with Corn Earworm (Helicoverpa zea, HELIZE). The data set is described as follows: Bioassay on Corn Earworm (CEW), 128-well diet tray assay. Conditions: 168 h, 50 μg/cm^2 on artificial diet, second instar larvae, five to seven days, 25° C., read-out: CEW % Control (or Mortality) rating. The procedure:
as §1, §2
Bioassays on CEW were conducted using a 128-well diet tray assay. one to five second instar CEW larvae were placed in each well (3 mL) of the diet tray that had been previously filled with 1 mL of artificial diet to which 50 μg/cm^2 of the test molecule (dissolved in 50 μL of 90:10 acetone-water mixture) had been applied (to each of eight wells) and then allowed to dry. Trays were covered with a clear self-adhesive cover, and held at 25° C., 14:10 light-dark for five to seven days. Percent mortality was recorded for the larvae in each well; activity in the eight wells was then averaged. The results are indicated in the table entitled “Table ABC: Biological Results” (See Table Section).

Data set [4] relates to Yellow Fever Mosquito (Aedes aegypti, AEDSAE). The data set is described as follows: Bioassay on Yellow Fever Mosquito (YFM) larvae, 96-well plate. Conditions: about 1 day-old larvae, 4000 ppm DMSO master plate diluted, graded after 3 days. As to the method: Example C: Bioassays on Yellow Fever Mosquito (Aedes aegypti, AEDSAE) (“YFM”)
Certain molecules disclosed in this document were tested against YFM using procedures described in the following paragraph. In the reporting of the results, the “YFM Rating Table” was used (See Table Section).
Master plates containing 400 μg of a molecule dissolved in 100 μL of dimethyl sulfoxide (DMSO) (equivalent to a 4000 ppm solution) are used. A master plate of assembled molecules contains 15 μL per well. To this plate, 135 μL of a 90:10 water:acetone mixture is added to each well. A robot (Biomek® NXP Laboratory Automation Workstation) is programmed to dispense 15 μL aspirations from the master plate into an empty 96-well shallow plate (“daughter” plate). There are 6 reps (“daughter” plates) created per master. The created daughter plates are then immediately infested with YFM larvae.
The day before plates are to be treated, mosquito eggs are placed in Millipore water containing liver powder to begin hatching (4 g. into 400 mL). After the daughter plates are created using the robot, they are infested with 220 μL of the liver powder/larval mosquito mixture (about 1 day-old larvae). After plates are infested with mosquito larvae, a non-evaporative lid is used to cover the plate to reduce drying. Plates are held at room temperature for 3 days prior to grading. After 3 days, each well is observed and scored based on mortality. The results are indicated in the table entitled “Table ABC: Biological Results” (See Table Section).

Molecules are shown by their SMILES.

Turning to `O=C(Nc1ccc(-c2ncn(-c3ccc(OC(F)(F)F)cc3)n2)cc1)Nc1nccn1-c1ccccc1` [F20, 1-(1-Phenyl-1H-imidazol-2-yl)-3-(4-(1-(4-(trifluoromethoxy)phenyl)-1H-1,2,4-triazol-3-yl)phenyl)urea], the mortality at 50 µg/cm2 in data set [1], in data set [2] and in data set [3] was 50 to 100% in each case.

Turning to `Cc1ccccc1-n1ccnc1NC(=O)Nc1ccc(-c2ncn(-c3ccc(OC(F)(F)F)cc3)n2)cc1` [F21, 1-(1-(o-Tolyl)-1H-imidazol-2-yl)-3-(4-(1-(4-(trifluoromethoxy)phenyl)-1H-1,2,4-triazol-3-yl)phenyl)urea], the mortality at 50 µg/cm2 in data set [1], in data set [2] and in data set [3] was 50 to 100% in each case.

Consider `CC(C)c1ccccc1-n1ccnc1NC(=O)Nc1ccc(-c2ncn(-c3ccc(OC(F)(F)F)cc3)n2)cc1` [F22, 1-(1-(2-Isopropylphenyl)-1H-imidazol-2-yl)-3-(4-(1-(4-(trifluoromethoxy)phenyl)-1H-1,2,4-triazol-3-yl)phenyl)urea], for which the mortality at 50 µg/cm2 in data set [1], in data set [2] and in data set [3] was 50 to 100% throughout.

In the case of `COc1cccc(-n2ccnc2NC(=O)Nc2ccc(-c3ncn(-c4ccc(OC(F)(F)F)cc4)n3)cc2)c1` [F23, 1-(1-(3-Methoxyphenyl)-1H-imidazol-2-yl)-3-(4-(1-(4-(trifluoromethoxy)phenyl)-1H-1,2,4-triazol-3-yl)phenyl)urea], the mortality at 50 µg/cm2 in data set [1], in data set [2] and in data set [3] was 50 to 100% in each case.

Consider `Cc1cccc(-n2ccnc2NC(=O)Nc2ccc(-c3ncn(-c4ccc(OC(F)(F)F)cc4)n3)cc2)c1` [F24, 1-(1-(m-Tolyl)-1H-imidazol-2-yl)-3-(4-(1-(4-(trifluoromethoxy)phenyl)-1H-1,2,4-triazol-3-yl)phenyl)urea], for which the mortality at 50 µg/cm2 in data set [1], in data set [2] and in data set [3] was 50 to 100% each time.

Regarding `CC(C)c1cccc(-n2ccnc2NC(=O)Nc2ccc(-c3ncn(-c4ccc(OC(F)(F)F)cc4)n3)cc2)c1` [F25, 1-(1-(3-Isopropylphenyl)-1H-imidazol-2-yl)-3-(4-(1-(4-(trifluoromethoxy)phenyl)-1H-1,2,4-triazol-3-yl)phenyl)urea], the mortality at 50 µg/cm2 in data set [1], in data set [2] and in data set [3] was 50 to 100% each time.

With `CCc1cccc(-n2ccnc2NC(=O)Nc2ccc(-c3ncn(-c4ccc(OC(F)(F)F)cc4)n3)cc2)c1` [F26, 1-(1-(3-Ethylphenyl)-1H-imidazol-2-yl)-3-(4-(1-(4-(trifluoromethoxy)phenyl)-1H-1,2,4-triazol-3-yl)phenyl)urea], the mortality at 50 µg/cm2 in data set [1], in data set [2] and in data set [3] was 50 to 100% throughout.

Turning to `O=C(Nc1ccc(-c2ncn(-c3ccc(OC(F)(F)F)cc3)n2)cc1)Nc1nccn1-c1cccc(Cl)c1` [F27, 1-(1-(3-Chlorophenyl)-1H-imidazol-2-yl)-3-(4-(1-(4-(trifluoromethoxy)phenyl)-1H-1,2,4-triazol-3-yl)phenyl)urea], the mortality at 50 µg/cm2 in data set [1], in data set [2] and in data set [3] was 50 to 100% throughout.

Consider `Cc1ccc(-n2ccnc2NC(=O)Nc2ccc(-c3ncn(-c4ccc(OC(F)(F)F)cc4)n3)cc2)cc1` [F29, 1-(1-(p-Tolyl)-1H-imidazol-2-yl)-3-(4-(1-(4-(trifluoromethoxy)phenyl)-1H-1,2,4-triazol-3-yl)phenyl)urea], for which the mortality at 50 µg/cm2 in data set [1], in data set [2] and in data set [3] was 50 to 100% each time.

`COc1ccc(-n2ccnc2NC(=O)Nc2ccc(-c3ncn(-c4ccc(OC(F)(F)F)cc4)n3)cc2)cc1` [F30, 1-(1-(4-Methoxyphenyl)-1H-imidazol-2-yl)-3-(4-(1-(4-(trifluoromethoxy)phenyl)-1H-1,2,4-triazol-3-yl)phenyl)urea]: the mortality at 50 µg/cm2 in data set [1], in data set [2] and in data set [3] was 50 to 100% in each case.

Take `Cc1cc(C)c(-c2c(NC(=O)NCCc3ccc(-c4ncn(-c5ccc(OC(F)(F)F)cc5)n4)cc3)on(C)c2=O)c(C)c1` [F59, 1-(4-Mesityl-2-methyl-3-oxo-2,3-dihydroisoxazol-5-yl)-3-(4-(1-(4-(trifluoromethoxy)phenyl)-1H-1,2,4-triazol-3-yl)phenethyl)urea]: the mortality at 50 µg/cm2 in data set [1] and in data set [2] was 50 to 100% throughout. The “YFM % Control (or Mortality) rating” value in data set [4] is given as “A (80-100)”.

As for `Cn1oc(NC(=O)NCCc2ccc(-c3ncn(-c4ccc(OC(F)(F)F)cc4)n3)cc2)c(-c2c(Cl)cccc2Cl)c1=O` [F60, 1-(4-(2,6-Dichlorophenyl)-2-methyl-3-oxo-2,3-dihydroisoxazol-5-yl)-3-(4-(1-(4-(trifluoromethoxy)phenyl)-1H-1,2,4-triazol-3-yl)phenethyl)urea], the mortality at 50 µg/cm2 in data set [1] and in data set [2] was 50 to 100% in each case. Moreover, the “YFM % Control (or Mortality) rating” value in data set [4] is “A (80-100)”.

Turning to `CCc1ccccc1-c1ncsc1NC(=O)NCCc1ccc(-c2ncn(-c3ccc(OC(F)(F)F)cc3)n2)cc1` [F61, 1-(4-(2-ethylphenyl)thiazol-5-yl)-3-(4-(1-(4-(trifluoromethoxy)phenyl)-1H-1,2,4-triazol-3-yl)phenethyl)urea], the mortality at 50 µg/cm2 is 0% in data set [1] and 50 to 100% in data set [2]. Also, the “YFM % Control (or Mortality) rating” value in data set [4] was “A (80-100)”.

As for `Cc1ccc(C)c(-c2ncsc2NC(=O)NCCc2ccc(-c3ncn(-c4ccc(OC(F)(F)F)cc4)n3)cc2)c1` [F62, 1-(4-(2,5-Dimethylphenyl)thiazol-5-yl)-3-(4-(1-(4-(trifluoromethoxy)phenyl)-1H-1,2,4-triazol-3-yl)phenethyl)urea], the mortality at 50 µg/cm2 in data set [1] is 0%; in data set [2], 50 to 100%. Besides, the “YFM % Control (or Mortality) rating” value in data set [4] is “A (80-100)”.

With `COc1ccc(-c2ncsc2NC(=O)NCCc2ccc(-c3ncn(-c4ccc(OC(F)(F)F)cc4)n3)cc2)c(C)c1` [F63, 1-(4-(4-Methoxy-2-methylphenyl)thiazol-5-yl)-3-(4-(1-(4-(trifluoromethoxy)phenyl)-1H-1,2,4-triazol-3-yl)phenethyl)urea], the results for the mortality at 50 µg/cm2 in data set [1] and in data set [2] were 0% and 50 to 100%, respectively. For the same molecule, the “YFM % Control (or Mortality) rating” value in data set [4] was “A (80-100)”.

For `O=C(NCCc1ccc(-c2ncn(-c3ccc(OC(F)(F)F)cc3)n2)cc1)Nc1scnc1-c1c(Cl)cccc1Cl` [F64, 1-(4-(2,6-Dichlorophenyl)thiazol-5-yl)-3-(4-(1-(4-(trifluoromethoxy)phenyl)-1H-1,2,4-triazol-3-yl)phenethyl)urea], the results for the mortality at 50 µg/cm2 in data set [1] and in data set [2] were 0% and 50 to 100%, respectively. In addition, the “YFM % Control (or Mortality) rating” value in data set [4] is given as “A (80-100)”.
